According to patent US20250064813A1, “STABLE LIQUID PHARMACEUTICAL FORMULATION” (GENUV Inc., priority 2022, published 2025):

Experiment: In-vial stability, 2 weeks: HPLC content and total impurities
Type: physicochemical
Description: The glass vials containing the compositions prepared in Example 4-1 were stored for 2 weeks under the two conditions below, and stability study was performed.
Aliquots of the compositions in the glass vial were taken, and the content of Compound 1 and total impurities were measured with HPLC. Measurements were performed in duplicates, and the average value was reported. Impurities were quantified by percentage area relative to the main Compound 1 peak and based on Relative Response Factor (RRF) of 1.0. As a positive control, the dried powder of Compound 1 was used and tested in the same way.

For CC(=O)Nc1cccc(-n2c(=O)n(C3CC3)c(=O)c3c(Nc4ccc(I)cc4F)n(C)c(=O)c(C)c32)c1 [Compound 1, N-(3-{3-Cyclopropyl-5-[(2-fluoro-4-iodophenyl)amino]-6,8-dimethyl-2,4,7-trioxo-3,4,6,7-tetrahydropyrido[4,3-d]pyrimidin-1 (2H)-yl}phenyl) acetamide], the “Compound 1 Content (%)” value (t = 0) was 100.5%, the “Total Impurities (%)” value (t = 0) was 0.15% and the “Compound 1 Content (%)” value (t = 2w (40° C./75% RH)) was 100.3%. The “Total Impurities (%)” value (t = 2w (40° C./75% RH)) was 0.14%.
